Reference: patent US7153822B2, “Compositions and methods for modulating connexin hemichannels” (Wyeth, priority 2002, dated 2006)
Square brackets hold non-standard residues; d marks the D form. Peptide text beside a SMILES is read from it. dHyp = O=C(O)[C@H]1C[C@H](O)CN1

Tested on: rats subjected to myocardial infarction
Test: myocardial infarction by LAD ligation in rats, three weeks of treatment
Type: in vivo, rat
Experimental: Male Lewis rats (300–350 g; M&B, L1. Skendsved, Denmark) were anaesthetized with a neurolept anaesthesic combination (Hypnorm® (fentanyl citrate 0.315 mg/ml and fluanisone 10 mg/ml)+midazolam (5 mg/ml)). Commercial solution of midazolam was diluted 1:2 in distilled water. Three parts of the diluted midazolam is mixed with one part hypnorm®. Anesthesia was induced by s.c. administration of 0.2 ml of this solution per 100 gram rat. When surgical anesthesia was established, an endotracheal cannula is inserted and the animal is artificially ventilated using a Harvard rodent ventilator adjusted to maintain arterial pH at 7.3–7.5 during surgery.
Doses used are shown below in Table I:
Three weeks after ligation of LAD, the rats were anesthetized with an i.p, injection of pentobarbital (50 mg/kg). The animals were placed on a heating blanket in order to maintain body temperature at 37° C. Tracheotomy was performed and the rat was ventilated with oxygen using a Harvard rodent ventilator. The ventilator was adjusted to maintain arterial pH at 7.35–7.45. PE50 catheters were placed in the femoral vein and artery for i.v. administration and arterial pressure measurements, respectively. After insertion of the femoral i.v. catheter, the animal was paralysed by i.v. administration of pancuronium, 1 mg/kg. Anaesthesia and respiratory paralysis is maintained by continuous i.v. infusion of pentobarbital (2.5 mg/kg/h) and pancuronium (1 mg/kg/h) delivered in isotonic saline (50 μl/min). A tygon catheter was inserted into the left ventricle via the right carotid artery for determination of left ventricular end-diastolic pressure. After recording of left ventricular end-diastolic pressure (LVEDP), The hearts are removed from the bodies by cutting the veins and arteries a few mm from the hearts. […]
Using a microscope with a stage that can be moved in predetermined steps, both Masson-trichrome stained slides were examined and the number of points hitting fibrous tissue (blue stained in Masson-trichrome) and normal tissue are counted. […] Infarct size was calculated as % fibrous tissue in the heart.

## CC(=O)N[C@H](Cc1ccc(O)cc1)C(=O)N1CCC[C@@H]1C(=O)N1C[C@@H](O)C[C@@H]1C(=O)NCC(=O)N[C@H](C)C(=O)NCC(N)=O [Compound 1, Ac-D-Tyr-D-Pro-D-4Hyp-Gly-D-Ala-Gly-NH2] (Ac-[dY][dP][dHyp]G[dA]G-NH2)
Either dose, three weeks
  left ventricular end-diastolic pressure: reduced left ventricular end-diastolic pressure
rats, three weeks after MI
  heart weight-body weight ratio: reduced by the two highest doses
Treatment for three weeks
  reduction of infarct size relative to vehicle treated MI rats: 20–50%
